Key:
NCI-H358 (K-Ras G12C) = experiment: CellTiter-Glo cell viability assay, NCI-H358; assay type: cell-based, human; details: Homo sapiens, NCI-H358, 120 h, NCI-H358, 5-day treatment; class symbols; read-out: Additional H358 Cell Viability assay data (K-Ras G12C, IC50)
In short: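 Four-parameter logistic fits were applied to luminescence data normalized against DMSO-treated wells. Readings were taken on day 5 following direct compound addition, after roughly 30 minutes at room temperature.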

NRAS G12C = NRAS G12C (Homo sapiens (Human), UniProt P01111+P62937, G12C); experiment: Ras-Raf (BRAF RBD) disruption / FRET / MOA assay, NRAS G12C; assay type: biochemical; details: read-out: IC50* NRAS G12C FRET data
In short: (§1)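 Compound-driven ternary complex of nucleotide-loaded Ras with cyclophilin A, disrupting BRAF RBD binding. 10-point 3-fold dilution from 30 μM final, 3 h at 25° C, then anti-His Eu-W1024 (10 nM) and anti-GST allophycocyanin (50 nM) for 1.5 h. IC50 from TR-FRET ratio decrease versus DMSO.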

K-Ras G13C = K-Ras G13C (Homo sapiens (Human), UniProt P01116+P62937, G13C); experiment: Ras-Raf (BRAF RBD) disruption / FRET / MOA assay, KRAS G13C; assay type: biochemical; details: KRAS G13C; Ras-Raf disruption/FRET/MOA assay; read-out: IC50* KRAS G13C FRET data
In short: as §1

KRAS G12V = KRAS G12V (Homo sapiens (Human), UniProt P01116+P62937, G12V); experiment: Ras-Raf (BRAF RBD) disruption / FRET / MOA assay, KRAS G12V; assay type: biochemical; details: read-out: IC50* KRAS G12V FRET data
In short: as §1

KRAS G12S = KRAS G12S (Homo sapiens (Human), UniProt P01116+P62937, G12S); experiment: Ras-Raf (BRAF RBD) disruption / FRET / MOA assay, KRAS G12S; assay type: biochemical; details: Ras-Raf disruption/FRET/MOA assay; class symbols; read-out: KRAS G12S FRET data IC50
In short: as §1

K-Ras G12C = K-Ras G12C (Homo sapiens (Human), UniProt P01116+P62937, G12C); experiment: Ras-Raf (BRAF RBD) disruption / FRET / MOA assay, KRAS G12C; assay type: biochemical; details: KRAS G12C; Ras-Raf disruption/FRET/MOA assay; read-out: IC50* KRAS G12C FRET data
In short: as §1

KRAS G12D = KRAS G12D (Homo sapiens (Human), UniProt P01116+P62937, G12D); experiment: Ras-Raf (BRAF RBD) disruption / FRET / MOA assay, KRAS G12D; assay type: biochemical; details: Ras-Raf disruption/FRET/MOA assay; class symbols; read-out: KRAS G12D FRET data IC50
In short: as §1

KRAS G13D = KRAS G13D (Homo sapiens (Human), UniProt P01116+P62937, G13D); experiment: Ras-Raf (BRAF RBD) disruption / FRET / MOA assay, KRAS G13D; assay type: biochemical; details: read-out: IC50* KRAS G13D FRET data
In short: as §1

[1] = system: NCI-H358 cells (K-Ras G12C); experiment: Potency assay: pERK in NCI-H358 cells; assay type: cell-based, human; details: Homo sapiens, NCI-H358; H358 KRAS G12C; read-out: pERK EC50
In short: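 Compounds are dosed as ten 3-fold dilutions from a 10 mM DMSO stock, in duplicate, and left on cells for 4 h at 37 °C, 5% CO2. Phospho-ERK1/2 is then quantified by AlphaLISA SureFire Ultra or In-Cell Western, and IC50 is derived from a 4-parameter sigmoid against log concentration.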

KRAS WT = KRAS WT (Homo sapiens (Human), UniProt P01116+P62937); experiment: Ras-Raf (BRAF RBD) disruption / FRET / MOA assay, KRAS WT; assay type: biochemical; details: read-out: IC50* KRAS WT FRET data
In short: as §1

Sequence of KRAS G12V (P01116-2 other isoform, or with tags, fused parts or gaps G12V): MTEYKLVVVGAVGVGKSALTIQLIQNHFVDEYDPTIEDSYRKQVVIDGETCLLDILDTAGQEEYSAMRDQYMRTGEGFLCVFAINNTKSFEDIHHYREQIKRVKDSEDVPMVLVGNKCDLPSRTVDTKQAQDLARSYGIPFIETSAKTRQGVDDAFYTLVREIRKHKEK
Sequence of KRAS G12V (P62937 whole entry): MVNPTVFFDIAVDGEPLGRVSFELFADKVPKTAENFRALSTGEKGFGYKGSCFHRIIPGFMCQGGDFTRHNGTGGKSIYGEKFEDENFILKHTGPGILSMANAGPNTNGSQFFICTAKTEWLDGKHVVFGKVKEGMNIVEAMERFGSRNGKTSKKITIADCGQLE
Sequence of KRAS G13D (P01116-2 other isoform, or with tags, fused parts or gaps G13D): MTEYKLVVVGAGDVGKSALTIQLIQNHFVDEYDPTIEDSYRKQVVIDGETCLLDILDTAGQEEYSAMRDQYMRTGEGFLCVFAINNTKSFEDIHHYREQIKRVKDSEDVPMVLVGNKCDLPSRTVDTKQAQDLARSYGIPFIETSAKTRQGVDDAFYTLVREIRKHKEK
Sequence of KRAS G13D (P62937 whole entry): as the sequence (P62937 whole entry) above
Sequence of KRAS G12D (P01116-2 other isoform, or with tags, fused parts or gaps G12D): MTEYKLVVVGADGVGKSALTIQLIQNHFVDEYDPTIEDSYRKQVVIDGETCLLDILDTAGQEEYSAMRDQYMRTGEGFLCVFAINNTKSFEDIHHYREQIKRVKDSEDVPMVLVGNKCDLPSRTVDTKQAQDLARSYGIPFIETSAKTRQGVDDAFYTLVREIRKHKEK
Sequence of KRAS G12D (P62937 whole entry): as the sequence (P62937 whole entry) above
Sequence of NRAS G12C (P01111 whole entry G12C): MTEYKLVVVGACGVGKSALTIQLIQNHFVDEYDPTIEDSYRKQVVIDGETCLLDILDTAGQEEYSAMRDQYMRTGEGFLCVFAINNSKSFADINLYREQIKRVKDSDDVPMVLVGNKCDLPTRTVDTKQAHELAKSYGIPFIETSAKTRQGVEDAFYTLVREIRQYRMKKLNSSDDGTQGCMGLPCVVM
Sequence of NRAS G12C (P62937 whole entry): as the sequence (P62937 whole entry) above
Sequence of K-Ras G13C (P01116-2 other isoform, or with tags, fused parts or gaps G13C): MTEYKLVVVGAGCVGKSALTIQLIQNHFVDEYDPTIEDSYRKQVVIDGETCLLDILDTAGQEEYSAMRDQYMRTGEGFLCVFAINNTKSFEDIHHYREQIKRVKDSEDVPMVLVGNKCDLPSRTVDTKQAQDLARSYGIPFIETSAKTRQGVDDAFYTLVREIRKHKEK
Sequence of K-Ras G13C (P62937 whole entry): as the sequence (P62937 whole entry) above
Sequence of KRAS G12S (P01116-2 other isoform, or with tags, fused parts or gaps G12S): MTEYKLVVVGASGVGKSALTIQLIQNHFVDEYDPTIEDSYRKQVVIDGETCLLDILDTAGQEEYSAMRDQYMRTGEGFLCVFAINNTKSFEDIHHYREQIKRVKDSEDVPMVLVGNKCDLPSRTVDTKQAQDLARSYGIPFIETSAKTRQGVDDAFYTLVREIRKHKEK
Sequence of KRAS G12S (P62937 whole entry): as the sequence (P62937 whole entry) above
Sequence of KRAS WT (P01116-2 other isoform, or with tags, fused parts or gaps): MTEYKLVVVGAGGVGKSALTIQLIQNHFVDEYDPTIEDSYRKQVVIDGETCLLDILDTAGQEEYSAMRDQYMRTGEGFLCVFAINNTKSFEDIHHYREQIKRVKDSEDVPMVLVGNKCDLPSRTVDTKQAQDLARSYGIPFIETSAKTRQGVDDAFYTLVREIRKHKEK
Sequence of KRAS WT (P62937 whole entry): as the sequence (P62937 whole entry) above
Sequence of K-Ras G12C (P01116-2 other isoform, or with tags, fused parts or gaps G12C): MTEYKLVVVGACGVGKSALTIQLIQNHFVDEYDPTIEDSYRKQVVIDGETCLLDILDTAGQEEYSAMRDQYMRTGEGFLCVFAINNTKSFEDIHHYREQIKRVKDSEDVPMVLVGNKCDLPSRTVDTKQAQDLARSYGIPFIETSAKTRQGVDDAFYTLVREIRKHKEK
Sequence of K-Ras G12C (P62937 whole entry): as the sequence (P62937 whole entry) above

| Structure (SMILES) | IC50 (NCI-H358 (K-Ras G12C)) | IC50 (NRAS G12C) | IC50 (K-Ras G13C) | IC50 (KRAS G12V) | IC50 (KRAS G12S) | IC50 (K-Ras G12C) | IC50 (KRAS G12D) | IC50 (KRAS G13D) | EC50 [1] | IC50 (KRAS WT) |
| --- | --- | --- | --- | --- | --- | --- | --- | --- | --- | --- |
| C=CC(=O)N1CC(OC(=O)N(C)[C@H](C(=O)N[C@H]2Cc3cccc(c3)-c3ccc4c(c3)c(c(-c3cccnc3[C@H](C)OC)n4CC)CC(C)(C)COC(=O)[C@@H]3CCCN(N3)C2=O)C(C)C)C1 (atropisomer, axis not shown) [Example A445] | < 0.01 µM | 0.01 to 0.1 µM | 0.1 to 1 µM | 1 to 10 µM | 1 to 10 µM | 0.01 to 0.1 µM | > 10 µM | 1 to 10 µM | < 5 µM | 1 to 10 µM |
| C=CC(=O)N1CC[C@H](C(=O)N(C)[C@H](C(=O)N[C@H]2Cc3cccc(c3)-c3ccc4c(c3)c(c(-c3cc5c(nc3[C@H](C)OC)CN(C)CC5)n4CC)CC(C)(C)COC(=O)[C@@H]3CCCN(N3)C2=O)C(C)C)C1 (atropisomer, axis not shown) [Example A446] | < 0.01 µM | 0.1 to 1 µM | 1 to 10 µM | 1 to 10 µM | 1 to 10 µM | 0.1 to 1 µM | > 10 µM | 1 to 10 µM | < 5 µM | 1 to 10 µM |
| CCn1c(-c2cccnc2[C@H](C)OC)c2c3cc(ccc31)-c1cccc(c1)C[C@H](NC(=O)CCOC1CN(C(=O)C#CC(C)(C)N(C)C)C1)C(=O)N1CCC[C@H](N1)C(=O)OCC(C)(C)C2 (atropisomer, axis not shown) [Example A448] | 0.01 to 0.1 µM | 0.01 to 0.1 µM | > 10 µM | > 10 µM | > 10 µM | 0.01 to 0.1 µM | > 10 µM | > 10 µM | < 5 µM | > 10 µM |
| C=CC(=O)N1C[C@H](C(=O)N(C)[C@H](C(=O)N[C@H]2Cc3cccc(c3)-c3ccc4c(c3)c(c(-c3cccnc3[C@H](C)OC)n4CC)CC(C)(C)COC(=O)[C@@H]3CCCN(N3)C2=O)C(C)C)[C@@H](C)C1 (atropisomer, axis not shown) [Example A451] | 0.01 to 0.1 µM | 0.1 to 1 µM | 0.1 to 1 µM | 1 to 10 µM | 1 to 10 µM | 0.1 to 1 µM | 1 to 10 µM | 1 to 10 µM | < 5 µM | 1 to 10 µM |
| C=CC(=O)N1CC2(C1)OCN([C@H](C(=O)N[C@H]1Cc3cccc(c3)-c3ccc4c(c3)c(c(-c3cccnc3[C@H](C)OC)n4CC)CC(C)(C)COC(=O)[C@@H]3CCCN(N3)C1=O)C(C)C)C2=O (atropisomer, axis not shown) [Example A452] | < 0.01 µM | 0.01 to 0.1 µM | 0.01 to 0.1 µM | 1 to 10 µM | 1 to 10 µM | 0.01 to 0.1 µM | > 10 µM | 1 to 10 µM | < 5 µM | 0.1 to 1 µM |
| CO[C@@H](C)c1ncccc1-c1c2c3cc(ccc3n1CC(F)(F)F)-c1nc(cs1)C[C@H](NC(=O)[C@H](C(C)C)N(C)C(=O)[C@H]1CCN(C(=O)C#CC(C)(C)N3CCC3)C1)C(=O)N1CCC[C@H](N1)C(=O)OCC(C)(C)C2 (atropisomer, axis not shown) [Example A454] | < 0.01 µM | 0.01 to 0.1 µM | 0.1 to 1 µM | 1 to 10 µM | 1 to 10 µM | 0.01 to 0.1 µM | 1 to 10 µM | 1 to 10 µM | < 5 µM | 0.1 to 1 µM |
| C=CC(=O)N1CC[C@H](C(=O)N(C)[C@H](C(=O)N[C@H]2Cc3csc(n3)-c3ccc4c(c3)c(c(-c3cccnc3[C@H](C)OC)n4CC(F)(F)F)CC(C)(C)COC(=O)[C@@H]3CCCN(N3)C2=O)C(C)C)C1 (atropisomer, axis not shown) [Example A455] | 0.01 to 0.1 µM | 0.1 to 1 µM | 0.1 to 1 µM | 1 to 10 µM | 0.1 to 1 µM | 0.1 to 1 µM | 1 to 10 µM | 1 to 10 µM | < 5 µM | 0.1 to 1 µM |
| CCn1c(-c2cccnc2[C@H](C)OC)c2c3cc(ccc31)-c1cc(cc(C(F)F)c1)C[C@H](NC(=O)[C@H](C1CCCC1)N(C)C(=O)[C@H]1CCN(C(=O)C#CC(C)(C)N3CCC3)C1)C(=O)N1CCC[C@H](N1)C(=O)OCC(C)(C)C2 (atropisomer, axis not shown) [Example A456] | < 0.01 µM | 0.01 to 0.1 µM | 1 to 10 µM | 1 to 10 µM | 1 to 10 µM | 0.01 to 0.1 µM | 1 to 10 µM | 1 to 10 µM | < 5 µM | 1 to 10 µM |
| C=CC(=O)N1CCC2(CC1)OCN([C@H](C(=O)N[C@H]1Cc3cccc(c3)-c3ccc4c(c3)c(c(-c3cccnc3[C@H](C)OC)n4CC)CC(C)(C)COC(=O)[C@@H]3CCCN(N3)C1=O)C(C)C)C2=O (atropisomer, axis not shown) [Example A457] | 0.01 to 0.1 µM | 0.1 to 1 µM | 0.1 to 1 µM | 1 to 10 µM | 1 to 10 µM | 0.1 to 1 µM | > 10 µM | 1 to 10 µM | < 5 µM | 0.1 to 1 µM |
| C=CC(=O)N1C[C@@H](C(=O)N(C)[C@H](C(=O)N[C@H]2Cc3cccc(c3)-c3ccc4c(c3)c(c(-c3cccnc3[C@H](C)OC)n4CC)CC(C)(C)COC(=O)[C@@H]3CCCN(N3)C2=O)C(C)C)C(C)(C)C1 (atropisomer, axis not shown) [Example A458] | 0.01 to 0.1 µM | 0.01 to 0.1 µM | 0.1 to 1 µM | 1 to 10 µM | 1 to 10 µM | 0.01 to 0.1 µM | > 10 µM | 1 to 10 µM | < 5 µM | 1 to 10 µM |
| C=CC(=O)N1CC(OC[C@H](C(=O)N[C@H]2Cc3nc(cs3)-c3ccc4c(c3)c(c(-c3cccnc3[C@H](C)OC)n4CC)CC(C)(C)COC(=O)[C@@H]3CCCN(N3)C2=O)C(C)C)C1 (atropisomer, axis not shown) [Example A462] | < 0.01 µM | 0.1 to 1 µM | 1 to 10 µM | 1 to 10 µM | 1 to 10 µM | 0.1 to 1 µM | > 10 µM | > 10 µM | < 5 µM | 1 to 10 µM |
